Test results as given in paper PMC10044120, “Potent and selective covalent inhibition of the papain-like protease from SARS-CoV-2” (Nature Communications, 2023).
Where two headings read alike, the source gives them in different places.

Legend:
[1] = Metabolic stability in mouse liver microsomes; details: CD-1, mouse
[2] = Cytotoxicity in uninfected Vero E6 cells, CellTiter-Glo; details: African green monkey
Vero E6 cells [3] = test: as above
SARS-CoV-2 USA-WA1/2020 = test: microbe, parasite or virus in culture; assay type: cell-based; details: for Virus Titer: USA-WA1/2020
[4] = system: SARS-CoV-2 Delta (B.1.617.2); test: CPE assay, neutral red, Vero E6 cells with 2 μM CP-100356, Delta; assay type: cell-based; details: Severe acute respiratory syndrome coronavirus 2, Vero C1008
in vitro [5] = details: human
in vitro [6] = details: African green monkey
USP2 = target: T1, USP2 (Homo sapiens, UniProt O75604); test: biochemical; details: USP2 10 nM, Ub-rhodamine110
T1 construct: USP2c, USP4, USP7, USP8c, USP15, USP30WT, and UCH-L1; purchased LifeSensors, Inc. (Malvern, PA)
T1 sequence (O75604 267-599): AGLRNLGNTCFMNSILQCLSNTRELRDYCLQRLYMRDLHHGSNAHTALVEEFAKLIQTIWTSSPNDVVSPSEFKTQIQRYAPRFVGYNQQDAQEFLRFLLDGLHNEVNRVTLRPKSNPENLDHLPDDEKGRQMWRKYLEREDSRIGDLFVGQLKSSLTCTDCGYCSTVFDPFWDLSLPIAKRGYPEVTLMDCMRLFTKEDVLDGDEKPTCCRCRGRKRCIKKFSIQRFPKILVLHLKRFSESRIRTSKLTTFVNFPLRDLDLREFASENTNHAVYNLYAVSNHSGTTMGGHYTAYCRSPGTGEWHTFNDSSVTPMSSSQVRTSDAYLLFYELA

[7] = Metabolic stability in rat liver S9 fraction; details: Sprague-Dawley
[8] = system: SARS-CoV-2 Omicron (B.1.1.529); test: microbe, parasite or virus in culture; assay type: cell-based; details: Severe acute respiratory syndrome coronavirus 2; Omicron (B1.1.529), Caco-2
[9] = system: SARS-CoV-2 Omicron (B.1.1.529); test: CPE assay, neutral red, Vero E6 cells with 2 μM CP-100356, Omicron; assay type: cell-based; details: Severe acute respiratory syndrome coronavirus 2, Vero C1008
USP15 = target: T2, USP15 (Homo sapiens, UniProt Q9Y4E8); test: DUB selectivity assay, USP15 (Ub-rhodamine110); assay type: biochemical
T2 construct: purchased LifeSensors, Inc. (Malvern, PA)
T2 sequence (Q9Y4E8 1-981): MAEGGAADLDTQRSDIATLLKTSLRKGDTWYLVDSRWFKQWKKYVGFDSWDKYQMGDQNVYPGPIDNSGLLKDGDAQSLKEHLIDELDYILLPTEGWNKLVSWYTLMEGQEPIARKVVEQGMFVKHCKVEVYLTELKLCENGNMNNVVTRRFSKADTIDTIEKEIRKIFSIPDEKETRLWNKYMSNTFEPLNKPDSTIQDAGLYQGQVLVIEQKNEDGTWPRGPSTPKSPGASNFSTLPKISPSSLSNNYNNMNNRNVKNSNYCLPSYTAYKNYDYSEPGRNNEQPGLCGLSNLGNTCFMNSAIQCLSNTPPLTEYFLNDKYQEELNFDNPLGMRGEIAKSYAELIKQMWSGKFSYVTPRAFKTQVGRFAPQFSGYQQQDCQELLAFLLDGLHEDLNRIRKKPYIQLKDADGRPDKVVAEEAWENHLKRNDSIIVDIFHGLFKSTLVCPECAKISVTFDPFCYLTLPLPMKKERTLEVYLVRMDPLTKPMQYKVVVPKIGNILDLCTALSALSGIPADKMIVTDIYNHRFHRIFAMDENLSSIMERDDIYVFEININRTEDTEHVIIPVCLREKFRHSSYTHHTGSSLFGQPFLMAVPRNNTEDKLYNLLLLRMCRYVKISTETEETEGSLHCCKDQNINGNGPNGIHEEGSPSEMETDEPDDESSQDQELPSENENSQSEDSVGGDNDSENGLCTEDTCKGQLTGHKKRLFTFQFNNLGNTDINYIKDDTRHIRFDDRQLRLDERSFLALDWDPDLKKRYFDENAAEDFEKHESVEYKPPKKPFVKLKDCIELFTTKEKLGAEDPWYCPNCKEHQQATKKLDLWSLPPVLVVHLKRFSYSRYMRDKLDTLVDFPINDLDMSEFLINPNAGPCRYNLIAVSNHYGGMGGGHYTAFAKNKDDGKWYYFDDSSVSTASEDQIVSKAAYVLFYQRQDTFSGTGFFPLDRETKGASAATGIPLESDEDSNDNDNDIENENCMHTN

USP8 = target: T3, USP8 (Homo sapiens, UniProt P40818); test: biochemical; details: USP8 10 nM, Ub-rhodamine110
T3 construct: USP2c, USP4, USP7, USP8c, USP15, USP30WT, and UCH-L1; purchased LifeSensors, Inc. (Malvern, PA)
T3 sequence (P40818 777-1109): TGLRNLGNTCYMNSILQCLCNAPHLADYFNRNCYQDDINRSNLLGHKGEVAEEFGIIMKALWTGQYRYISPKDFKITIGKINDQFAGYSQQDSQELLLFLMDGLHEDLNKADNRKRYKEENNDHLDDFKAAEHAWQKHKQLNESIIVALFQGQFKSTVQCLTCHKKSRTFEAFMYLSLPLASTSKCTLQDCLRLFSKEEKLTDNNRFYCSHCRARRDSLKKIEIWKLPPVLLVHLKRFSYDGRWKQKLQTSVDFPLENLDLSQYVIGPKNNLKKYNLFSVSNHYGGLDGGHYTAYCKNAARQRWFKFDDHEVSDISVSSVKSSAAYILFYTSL

[10] = Metabolic stability in mouse liver S9 fraction; details: CD-1, mouse
Vero E6 cells [11] = system: Vero E6 cells
[12] = target: full-length SARS-CoV-2 hemagglutinin (HA)-Nsp3 (Severe acute respiratory syndrome coronavirus 2, UniProt P0DTD1); test: biochemical
Vero E6 cells [13] = details: African green monkey, 48 h

Q: For `COC(=O)/C=C/C(=O)NNC(=O)CCc1ccccc1C(=O)N[C@H](C)c1cccc2ccccc12` [Compound 7, methyl(R,E)-4-(2-(3-(2-((1-(naphthalen-1 yl)ethyl)carbamoyl)phenyl)propanoyl)hydrazineyl)-4-oxobut-2-enoate], which half-life [1] is on record?
A: 13 min

Q: And the microsomal CLint [1]?
A: 540 µL/min/mg

Q: And the viability at 48 h, 2.08 µM ([2]; % cell viability, cytotoxicity, 2.08 uM)?
A: 100%

Q: What about the viability at 48 h, 8.33 µM ([2]; % cell viability, cytotoxicity, 8.33 uM) of the same molecule?
A: 99.6%

Q: And the viability at 48 h, 16.65 µM ([2]; % cell viability, cytotoxicity, 16.65 uM)?
A: 95.7%

Q: And the CC50 at 48 h ([2]; CC50, uninfected Vero E6 cells)?
A: > 30 µM

Q: What about the “% cell viability, cytotoxicity” value (Vero E6 cells [3]; 2.08 uM) of the same molecule?
A: 98.575%

Q: And the “% cell viability, cytotoxicity” value (Vero E6 cells [3]; 8.33 uM)?
A: 99.545%

Q: And the “% cell viability, cytotoxicity” value (Vero E6 cells [3]; 16.65 uM)?
A: 90.390%

Q: What about the “CC50 < 30 μM” value (Vero E6 cells [3]; uninfected Vero E6 cells, Yes/No) of the same molecule?
A: No

Q: And the EC90 (SARS-CoV-2 USA-WA1/2020; Severe acute respiratory syndrome coronavirus 2, Caco-2)?
A: 0.26 µM

Q: And the “Virus Titer” value (SARS-CoV-2 USA-WA1/2020; 0.01 µM)?
A: 4.0 CCID50/mL (Log10)

Q: What about the “Virus Titer” value (SARS-CoV-2 USA-WA1/2020; 0.1 µM) of the same molecule?
A: 1.7 CCID50/mL (Log10)

Q: And the “Virus Titer” value (SARS-CoV-2 USA-WA1/2020; 1 µM)?
A: <0.7 CCID50/mL (Log10)

Q: What about the “Virus Titer” value (SARS-CoV-2 USA-WA1/2020; 10 µM) of the same molecule?
A: <0.7 CCID50/mL (Log10)

Q: What about the EC50 [4] of the same molecule?
A: 0.29 µM

Q: And the CC50 (in vitro [5])?
A: > 10 µM

Q: And the cytotoxicity at 0.01 µM (in vitro [5])?
A: 8.4%

Q: What about the cytotoxicity at 0.1 µM (in vitro [5]) of the same molecule?
A: 3.4%

Q: And the cytotoxicity at 1 µM (in vitro [5])?
A: 0.326%

Q: What about the cytotoxicity at 10 µM (in vitro [5]) of the same molecule?
A: 18.1%

Q: And the cytotoxicity at 0.01 µM (in vitro [5]; Percent Cytotoxicity (Neutral Red), Caco-2, SARS2-740 (Delta set), 0.01 µM)?
A: 0%

Q: What about the cytotoxicity at 0.1 µM (in vitro [5]; Percent Cytotoxicity (Neutral Red), Caco-2, SARS2-740 (Delta set), 0.1 µM) of the same molecule?
A: 0%

Q: What about the cytotoxicity at 1 µM (in vitro [5]; Percent Cytotoxicity (Neutral Red), Caco-2, SARS2-740 (Delta set), 1 µM) of the same molecule?
A: 8%

Q: And the cytotoxicity at 10 µM (in vitro [5]; Percent Cytotoxicity (Neutral Red), Caco-2, SARS2-740 (Delta set), 10 µM)?
A: 4.4%

Q: And the cytotoxicity at 0.01 µM (in vitro [5]; Percent Cytotoxicity (Neutral Red), Caco-2, SARS2-740 (USA-WA1/2020 set), 0.01 µM)?
A: 1.6%

Q: What about the cytotoxicity at 0.1 µM (in vitro [5]; Percent Cytotoxicity (Neutral Red), Caco-2, SARS2-740 (USA-WA1/2020 set), 0.1 µM) of the same molecule?
A: 0%

Q: What about the cytotoxicity at 1 µM (in vitro [5]; Percent Cytotoxicity (Neutral Red), Caco-2, SARS2-740 (USA-WA1/2020 set), 1 µM) of the same molecule?
A: 0%

Q: And the cytotoxicity at 10 µM (in vitro [5]; Percent Cytotoxicity (Neutral Red), Caco-2, SARS2-740 (USA-WA1/2020 set), 10 µM)?
A: 39.6%

Q: What about the CC50 (in vitro [6]) of the same molecule?
A: > 10 µM

Q: What about the cytotoxicity at 0.01 µM (in vitro [6]) of the same molecule?
A: 6.3%

Q: What about the cytotoxicity at 0.1 µM (in vitro [6]) of the same molecule?
A: 1.1%

Q: What about the cytotoxicity at 1 µM (in vitro [6]) of the same molecule?
A: 3.3%

Q: What about the cytotoxicity at 10 µM (in vitro [6]) of the same molecule?
A: 27.4%

Q: And the cytotoxicity at 0.01 µM (in vitro [6]; Percent Cytotoxicity (Neutral Red), Vero E6, SARS2-733 (Delta set), 0.01 µM)?
A: 11.8%

Q: And the cytotoxicity at 0.1 µM (in vitro [6]; Percent Cytotoxicity (Neutral Red), Vero E6, SARS2-733 (Delta set), 0.1 µM)?
A: 7.1%

Q: And the cytotoxicity at 1 µM (in vitro [6]; Percent Cytotoxicity (Neutral Red), Vero E6, SARS2-733 (Delta set), 1 µM)?
A: 4.8%

Q: What about the cytotoxicity at 10 µM (in vitro [6]; Percent Cytotoxicity (Neutral Red), Vero E6, SARS2-733 (Delta set), 10 µM) of the same molecule?
A: 9.3%

Q: And the cytotoxicity at 0.01 µM (in vitro [6]; Percent Cytotoxicity (Neutral Red), Vero E6, SARS2-735, 0.01 µM)?
A: 0%

Q: And the cytotoxicity at 0.1 µM (in vitro [6]; Percent Cytotoxicity (Neutral Red), Vero E6, SARS2-735, 0.1 µM)?
A: 0%

Q: And the cytotoxicity at 1 µM (in vitro [6]; Percent Cytotoxicity (Neutral Red), Vero E6, SARS2-735, 1 µM)?
A: 3.8%

Q: What about the cytotoxicity at 10 µM (in vitro [6]; Percent Cytotoxicity (Neutral Red), Vero E6, SARS2-735, 10 µM) of the same molecule?
A: 38.5%

Q: What about the IC50 (USP2) of the same molecule?
A: > 30 µM

Q: And the half-life [7]?
A: 31 min

Q: What about the microsomal CLint [7] of the same molecule?
A: 75.5 µL/min/mg

Q: What about the EC90 [8] of the same molecule?
A: 2.4 µM

Q: And the EC50 [9]?
A: 0.68 µM

Q: What about the IC50 (USP15) of the same molecule?
A: > 30 µM

Q: What about the IC50 (USP8) of the same molecule?
A: > 30 µM

Q: What about the half-life [10] of the same molecule?
A: 9 min

Q: What about the microsomal CLint [10] of the same molecule?
A: 266 µL/min/mg

Q: What about the CC50 (Vero E6 cells [11]; Vero E6, 2 μM CP-100356, Delta rows) of the same molecule?
A: > 10 µM

Q: What about the CC50 (Vero E6 cells [11]; Vero E6, 2 μM CP-100356, Omicron rows) of the same molecule?
A: > 10 µM

Q: What about the inhibition at 0.003 µM ([12]; 0.003 uM, read-out: Percent Nsp3 inhibition) of the same molecule?
A: -4%

Q: What about the “Percent Nsp3 inhibition” value ([12]; 1.852 uM) of the same molecule?
A: 84.0%

Q: And the inhibition at 1.852 µM ([12]; 1.852 uM, read-out: Percent Nsp3 inhibition)?
A: 83.9%

Q: What about the “Percent Nsp3 inhibition” value ([12]; 50.000 uM) of the same molecule?
A: 89.9%

Q: And the inhibition at 50 µM ([12]; 50.000 uM, read-out: Percent Nsp3 inhibition)?
A: 90.7%

Q: For `C[C@@H](NC(=O)c1ccccc1CCC(=O)NNC(=O)CCl)c1cccc2ccccc12` [Compound 9, (R)-2-(3-(2-(2-chloroacetyl)hydrazineyl)-3-oxopropyl)-N-(1-(naphthalen-1-yl)ethyl)benzamide], which half-life [1] is on record?
A: 5 min

Q: What about the microsomal CLint [1] of the same molecule?
A: 1330 µL/min/mg

Q: What about the IC50 (USP2) of the same molecule?
A: > 30 µM

Q: What about the half-life [7] of the same molecule?
A: 16 min

Q: What about the microsomal CLint [7] of the same molecule?
A: 140 µL/min/mg

Q: What about the IC50 (USP15; USP15 1 nM, Ub-rhodamine110, read-out: IC50) of the same molecule?
A: > 30 µM

Q: And the IC50 (USP8)?
A: > 30 µM

Q: And the “cytotoxicity, %cell viability” value (Vero E6 cells [13]; 2.08 µM)?
A: 100.620%

Q: And the “cytotoxicity, %cell viability” value (Vero E6 cells [13]; 8.33 µM)?
A: 103.333%

Q: What about the “cytotoxicity, %cell viability” value (Vero E6 cells [13]; 16.65 µM) of the same molecule?
A: 94.042%

Q: What about the half-life [10] of the same molecule?
A: 4 min

Q: What about the microsomal CLint [10] of the same molecule?
A: 544 µL/min/mg
